The values below come from patent publication US20260138976A1 (Hoffmann-La Roche Inc., priority 2022, published 2026).

The term IC50 denotes the concentration that inhibits the measured activity by half. The low end stands for inhibition by little substance, the high end for a need for much substance. What is called EC50 is the concentration that produces a half-maximal response.

Experiment [1] has as its target T1, DGKζ (hDGKzeta(1-928)-N-His) (Homo sapiens, UniProt Q13574).
T1 construct: hDGKzeta(1-928)-N-His; His (N); made in house; host or cells: Sf21 insect cells (baculovirus)
Put plainly: In vitro DGK inhibition assay, DGKzeta ADP Glo (in house). The note with it: 2 nM DGKζ, 50 μM ATP, 125 uM DLG in liposomes, 1 hour reaction. In kind it is biochemical. In outline:
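ADP-Glo luminescence measured ADP formed over 1 h by Sf21-expressed full-length human enzymes: DGKα at 4 nM with 25 µM ATP, DGKζ at 2 nM with 50 µM ATP, both on 125 µM DLG in PS/PC liposomes. Dose–response used 11 threefold dilutions at 2% final DMSO.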
Background: ADP-Glo first removes unused ATP, then detects ADP through luciferase.

The next experiment concerns primary human T-cells. Put plainly: IL2 secretion measurements (24 h, CD3-stimulated T-cells, PBS counter screen). It counts as cell-based. The conditions noted are these: for Emax IL2 (% activation): CD3 condition, normalised to DMSO (neutral) and 20 μM reference compound A1 = 100%; for EC50: Homo sapiens, T-cell, CD3-stimulated primary human T-cells, IL2 secretion, fitted sigmoidal curve, read-out: Tcell IL2 CD3 EC50. In short, it runs like this:
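IL-2 secretion was measured by ProQuantum or ELISA after 24 h culture of expanded human T-cells with compound, on CD3-antibody-coated plates or PBS counter-screen plates. Dosing used 5–6 points from a 20 or 10 μM final top at 3.333-fold steps in 0.2% DMSO. EC50/Emax were scaled between DMSO and 20 μM reference A1.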
(In general: A counterscreen serves to expose hits that act by an unwanted route or on another target.)

T1 sequence (Q13574 whole entry): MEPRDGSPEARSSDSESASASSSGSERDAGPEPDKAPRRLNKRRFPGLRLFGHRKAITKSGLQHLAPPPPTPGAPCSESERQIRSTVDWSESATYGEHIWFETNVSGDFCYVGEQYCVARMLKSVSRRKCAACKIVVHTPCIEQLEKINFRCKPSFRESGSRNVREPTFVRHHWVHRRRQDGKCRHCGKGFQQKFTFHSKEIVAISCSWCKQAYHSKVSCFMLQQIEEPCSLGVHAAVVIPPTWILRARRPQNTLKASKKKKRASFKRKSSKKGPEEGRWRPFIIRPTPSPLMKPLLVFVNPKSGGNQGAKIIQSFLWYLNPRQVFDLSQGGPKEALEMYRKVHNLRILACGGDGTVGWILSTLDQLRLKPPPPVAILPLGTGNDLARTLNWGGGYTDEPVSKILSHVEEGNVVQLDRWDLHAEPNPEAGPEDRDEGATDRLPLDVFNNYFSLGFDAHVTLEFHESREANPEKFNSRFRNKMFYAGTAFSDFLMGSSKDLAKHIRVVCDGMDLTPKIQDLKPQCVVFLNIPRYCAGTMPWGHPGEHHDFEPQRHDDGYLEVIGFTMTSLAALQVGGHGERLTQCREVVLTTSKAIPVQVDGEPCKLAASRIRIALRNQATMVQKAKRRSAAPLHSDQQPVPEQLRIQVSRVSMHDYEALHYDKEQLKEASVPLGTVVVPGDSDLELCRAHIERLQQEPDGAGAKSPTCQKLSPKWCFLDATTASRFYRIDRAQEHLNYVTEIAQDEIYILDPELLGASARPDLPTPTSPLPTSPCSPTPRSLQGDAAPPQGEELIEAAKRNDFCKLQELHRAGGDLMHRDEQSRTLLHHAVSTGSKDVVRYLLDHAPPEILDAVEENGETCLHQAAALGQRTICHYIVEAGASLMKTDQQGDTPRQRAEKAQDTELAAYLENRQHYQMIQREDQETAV

Compound `N[C@H]1CS(=O)(=O)c2ccc(-c3nnc(N4CCOC(C(F)(F)F)C4)o3)cc2N(Cc2ccc(-c3ccc(C(F)(F)F)cc3)cc2)C1=O` (stereo partly drawn) [Example 73, (3R)-3-amino-1,1-dioxo-7-[5-[2-(trifluoromethyl)morpholin-4-yl]-1,3,4-oxadiazol-2-yl]-5-[[4-[4-(trifluoromethyl)phenyl]phenyl]methyl]-2,3-dihydro-1λ^6,5-benzothiazepin-4-one] came in with an IC50 in experiment [1] of 13.6 µM. Also, in the experiment with primary human T-cells, the “Emax IL2 (% activation)” value turned out to be 116 % activation and the EC50 came to 2.53 µM.
In the same order, the values of `N[C@H]1CS(=O)(=O)c2ccc(-c3nnc(N4CCOC(C(F)(F)F)C4)o3)cc2N(Cc2ccc(-c3noc(C(F)(F)F)n3)cc2)C1=O` (stereo partly drawn) [Example 74, (3R)-3-amino-1,1-dioxo-7-[5-[2-(trifluoromethyl)morpholin-4-yl]-1,3,4-oxadiazol-2-yl]-5-[[4-[5-(trifluoromethyl)-1,2,4-oxadiazol-3-yl]phenyl]methyl]-2,3-dihydro-1λ^6,5-benzothiazepin-4-one] are 0.77 µM, 206 % activation and 1.46 µM.
In experiment [1], `N[C@H]1CS(=O)(=O)c2ccc(-c3nnc(N4CCOC(C(F)(F)F)C4)o3)cc2N(Cc2ccc(-c3ccc(C(F)(F)F)cn3)cc2)C1=O` (stereo partly drawn) [Example 75, (3R)-3-amino-1,1-dioxo-7-[5-[2-(trifluoromethyl)morpholin-4-yl]-1,3,4-oxadiazol-2-yl]-5-[[4-[5-(trifluoromethyl)-2-pyridyl]phenyl]methyl]-2,3-dihydro-1λ^6,5-benzothiazepin-4-one] displayed an IC50 of 2.68 µM. Besides, in the experiment on primary human T-cells, the “Emax IL2 (% activation)” value is 140 % activation and the EC50 amounted to 2.55 µM.
In the same order, the values of `COc1ccc(-c2ccc(CN3C(=O)[C@@H](N)CS(=O)(=O)c4ccc(-c5nnc(N6CCC(F)(F)C6)o5)cc43)cc2)cc1` [Example 76, (3R)-3-amino-7-[5-(3,3-difluoropyrrolidin-1-yl)-1,3,4-oxadiazol-2-yl]-5-[[4-(4-methoxyphenyl)phenyl]methyl]-1,1-dioxo-2,3-dihydro-1λ^6,5-benzothiazepin-4-one] are 1.08 µM, 297 % activation and 2.64 µM.
`N[C@H]1CS(=O)(=O)c2ccc(-c3nnc(N4CCOC5(CC5)C4)o3)cc2N(Cc2ccc(-c3noc(C(F)(F)F)n3)cc2)C1=O` [Example 77] displayed a half-maximal inhibitory concentration (IC50) in experiment [1] of 1.53 µM. In addition, in the experiment on primary human T-cells, the “Emax IL2 (% activation)” value amounted to 170 % activation and the EC50 turned out to be 3.45 µM.
Taken in the same sequence, the figures for `COc1ccc(-c2ccc(CN3C(=O)[C@@H](N)CS(=O)(=O)c4ccc(-c5nnc(N6CCOC(F)(F)C6)o5)cc43)cc2)cc1` [Example 79, (3R)-3-amino-7-[5-(2,2-difluoromorpholin-4-yl)-1,3,4-oxadiazol-2-yl]-5-[[4-(4-methoxyphenyl)phenyl]methyl]-1,1-dioxo-2,3-dihydro-1λ^6,5-benzothiazepin-4-one] were 0.88 µM, 236 % activation and 2.45 µM.
Taken in the same sequence, the figures for `N[C@H]1CS(=O)(=O)c2ccc(-c3noc(C4(N)COC4)n3)cc2N(Cc2ccc(-c3noc(C(F)(F)F)n3)cc2)C1=O` [Example 84, (3R)-3-amino-7-[5-(3-aminooxetan-3-yl)-1,2,4-oxadiazol-3-yl]-1,1-dioxo-5-[[4-[5-(trifluoromethyl)-1,2,4-oxadiazol-3-yl]phenyl]methyl]-2,3-dihydro-1lambda6,5-benzothiazepin-4-one] were 3.07 µM, 33 % activation and over 10 µM.
In the same order, the values of `N[C@H]1CS(=O)(=O)c2ccc(-c3noc(-c4cccnc4Cl)n3)cc2N(Cc2ccc(-c3noc(C4CC4)n3)cc2)C1=O` [Example 85, (3R)-3-amino-7-[5-(2-chloro-3-pyridyl)-1,2,4-oxadiazol-3-yl]-5-[[4-(5-cyclopropyl-1,2,4-oxadiazol-3-yl)phenyl]methyl]-1,1-dioxo-2,3-dihydro-1λ^6,5-benzothiazepin-4-one] are 2.1 µM, 4 % activation and over 10 µM.
`Cc1nc(F)ccc1-c1nc(-c2ccc3c(c2)N(Cc2ccc(-c4noc(C5CC5)n4)cc2)C(=O)[C@@H](N)CS3(=O)=O)no1` [Example 86, (3R)-3-amino-5-[[4-(5-cyclopropyl-1,2,4-oxadiazol-3-yl)phenyl]methyl]-7-[5-(6-fluoro-2-methyl-3-pyridyl)-1,2,4-oxadiazol-3-yl]-1,1-dioxo-2,3-dihydro-1λ^6,5-benzothiazepin-4-one] registered an IC50 in experiment [1] of 0.642 µM. In the experiment with primary human T-cells, the “Emax IL2 (% activation)” value came to 101 % activation and the EC50 is 4.16 µM.
In turn, `N[C@H]1CS(=O)(=O)c2ccc(-c3noc(-c4cccnc4C(F)(F)F)n3)cc2N(Cc2ccc(-c3noc(C4CC4)n3)cc2)C1=O` [Example 87, (3R)-3-amino-5-[[4-(5-cyclopropyl-1,2,4-oxadiazol-3-yl)phenyl]methyl]-1,1-dioxo-7-[5-[2-(trifluoromethyl)-3-pyridyl]-1,2,4-oxadiazol-3-yl]-2,3-dihydro-1λ^6,5-benzothiazepin-4-one] returned an IC50 in experiment [1] of 2.31 µM. In the experiment on primary human T-cells, the “Emax IL2 (% activation)” value was 16 % activation and the EC50 was over 10 µM.
In the same order, the values of `CC(C)(C)c1nnc(-c2ccc3c(c2)N(Cc2ccc(-c4nc(C(F)(F)F)co4)cc2)C(=O)[C@@H](N)CS3(=O)=O)o1` [Example 89, (3R)-3-amino-7-(5-tert-butyl-1,3,4-oxadiazol-2-yl)-1,1-dioxo-5-[[4-[4-(trifluoromethyl)oxazol-2-yl]phenyl]methyl]-2,3-dihydro-1λ^6,5-benzothiazepin-4-one] are 0.613 µM, 182 % activation and 0.377 µM.
In turn, `CC(C)(C)c1nnc(-c2ccc3c(c2)N(Cc2ccc(-n4cnc(C(F)(F)F)n4)cc2)C(=O)[C@@H](N)CS3(=O)=O)o1` [Example 91, (3R)-3-amino-7-(5-tert-butyl-1,3,4-oxadiazol-2-yl)-1,1-dioxo-5-[[4-[3-(trifluoromethyl)-1,2,4-triazol-1-yl]phenyl]methyl]-2,3-dihydro-126,5-benzothiazepin-4-one] registered an IC50 in experiment [1] of 3.01 µM. Besides, in the experiment on primary human T-cells, the “Emax IL2 (% activation)” value is 113 % activation and the EC50 turned out to be 3.6 µM.
Taken in the same sequence, the figures for `N[C@H]1CS(=O)(=O)c2ccc(-c3nnc(C4(C5CC5)CCCO4)o3)cc2N(Cc2ccc(-c3nnc(C(F)(F)F)o3)cc2)C1=O` (stereo partly drawn) [Example 97, (3R)-3-amino-7-[5-(2-cyclopropyltetra-hydrofuran-2-yl)-1,3,4-oxadiazol-2-yl]-1,1-dioxo-5-[[4-[5-(trifluoromethyl)-1,3,4-oxadiazol-2-yl]phenyl]methyl]-2,3-dihydro-1λ6,5-benzothiazepin-4-one] were 2.08 µM, 115 % activation and 6.35 µM.
In experiment [1], `CC(c1nc(-c2ccc(CN3C(=O)[C@@H](N)CS(=O)(=O)c4ccc(-c5nnc(C6(N)CCCCC6)o5)cc43)cc2)no1)C(F)(F)F` (stereo partly drawn) [Example 98, (3R)-3-amino-7-[5-(1-aminocyclohexyl)-1,3,4-oxadiazol-2-yl]-1,1-dioxo-5-[[4-[5-(2,2,2-trifluoro-1-methyl-ethyl)-1,2,4-oxadiazol-3-yl]phenyl]methyl]-2,3-dihydro-1λ^6,5-benzothiazepin-4-one] showed an IC50 of 1.03 µM. In addition, in the experiment with primary human T-cells, the “Emax IL2 (% activation)” value is 97 % activation and the EC50 came out at 1.37 µM.
In the same order, the values of `CC(C)(C#N)c1nnc(-c2ccc3c(c2)N(Cc2ccc(-n4ccc(C(F)(F)F)n4)cc2)C(=O)[C@@H](N)CS3(=O)=O)o1` [Example 121, 2-[5-[(3R)-3-amino-1,1,4-trioxo-5-[[4-[3-(trifluoromethyl)pyrazol-1-yl]phenyl]methyl]-2,3-dihydro-1λ^6,5-benzothiazepin-7-yl]-1,3,4-oxadiazol-2-yl]-2-methyl-propanenitrile] are 0.767 µM, 207 % activation and 0.732 µM.
Compound `CC1(c2nnc(-c3ccc4c(c3)N(Cc3ccc(-c5noc(C(F)(F)F)n5)cc3)C(=O)[C@@H](N)CS4(=O)=O)o2)COC1` [Example 149, (3R)-3-amino-7-[5-(3-methyloxetan-3-yl)-1,3,4-oxadiazol-2-yl]-1,1-dioxo-5-[[4-[5-(trifluoromethyl)-1,2,4-oxadiazol-3-yl]phenyl]methyl]-2,3-dihydro-1λ^6,5-benzothiazepin-4-one] came in with an IC50 in experiment [1] of 4.25 µM. Besides, in the experiment with primary human T-cells, the “Emax IL2 (% activation)” value is 268 % activation and the EC50 was 0.567 µM.
Taken in the same sequence, the figures for `CC1(c2nnc(-c3ccc4c(c3)N(Cc3ccc(-c5ccc(C(F)(F)F)cn5)cc3)C(=O)[C@@H](N)CS4(=O)=O)o2)COC1` [Example 150, (3R)-3-amino-7-[5-(3-methyloxetan-3-yl)-1,3,4-oxadiazol-2-yl]-1,1-dioxo-5-[[4-[5-(trifluoromethyl)-2-pyridyl]phenyl]methyl]-2,3-dihydro-1λ^6,5-benzothiazepin-4-one] were 9.91 µM, 35 % activation and over 10 µM.
